The source made the active and inactive calls. No rule for the calls is given here.
Columns and labels:
[1] = tested on: S. cerevisiae alpha-synuclein toxicity rescue, OD600 growth, 24 h; assay: rescue of alpha-synuclein yeast toxicity, dose response, S. cerevisiae, plate reader, cherry-pick (AID 602273)
[2] = as above; details: S. cerevisiae alpha-synuclein toxicity rescue, OD600 growth, 24 h; at 26 µM (top of the series)

SMILES | AC40 [1] | growth rescue activity [2]
Fc1cc(NCc2ccccc2)nc(NCc2ccccc2)n1 | > 26 µM (inactive) | 
Cc1cc(-c2nc3ncccc3o2)ccc1NC(=S)NC(=O)C(C)C | > 26 µM (inactive) | 
O=C1C=C(c2ccccc2)CC(/C=C/c2ccccc2)C1 (stereo not given) | > 12 µM (inactive) | 
O=C(CSc1nnc(-c2c[nH]c3ccccc23)o1)c1ccccc1 | > 26 µM (inactive) | 
CCOC(=O)c1nnsc1Nc1ccc(C)c(C)c1 | > 26 µM (inactive) | 
O=c1c2sccc2nc(SCc2ccc([N+](=O)[O-])cc2)n1Cc1ccccn1 | > 26 µM (inactive) | 
COc1cccc(NC(=S)NC(=O)c2c(Cl)c(C)nn2C)c1 | > 26 µM (inactive) | 
CSc1sc(C(=O)Nc2ccc(F)cc2F)c2c1C=CCC2 | > 26 µM (inactive) | 
CN1CCN(Cc2c(O)ccc3cc(Br)ccc23)CC1 | > 26 µM (inactive) | 
Cc1ccc2oc(C(=O)N3CCC(O)(c4cccc(C(F)(F)F)c4)CC3)c(C)c2c1 | > 26 µM (inactive) | 
COc1cccc(CNc2ccc(Br)cn2)c1O | > 26 µM (inactive) | 
O=c1[nH]c2ccccc2c2cn(-c3ccccc3)nc12 | 23.4 µM | 
COc1ccc(C(=O)Cn2c(C(=O)/C=C/c3ccccc3)nc3ccccc32)cc1 |  | 1.68% (inactive)
O=C1C2CC=CCC2C(=O)N1c1ccc(NCCc2ccccc2)c([N+](=O)[O-])c1 (stereo not given) |  | 11.8% (inactive)
Cc1csc2nc(CCNS(=O)(=O)c3cccs3)cn12 |  | 3.48% (inactive)
O=C1NC(=S)S/C1=C/c1ccc(OC(=O)c2ccco2)cc1 |  | 9.87% (inactive)
CN(CCC1CCCCO1)C(=O)CCc1nnc(CCCCc2ccccc2)o1 (stereo not given) |  | 1.7% (inactive)
Cc1ccccc1CSc1nsc(N)n1 | 14.5 µM | 
CCSc1nnc(NC(=O)c2cccnc2Cl)s1 |  | -4.76% (inactive)
O=C(NCc1cccc(F)c1)c1noc2c1CCCC2 |  | 10.6% (inactive)
CCCCC(=O)OCC(=O)c1[nH]c(C)c(C(=O)OCC)c1C |  | 2.65% (inactive)
CNc1nc(Nc2ccc(C)c(Cl)c2)nc(N)c1[N+](=O)[O-] |  | -8.67% (inactive)
O=C1S/C(=C\c2ccc(N3CCOCC3)o2)C(=O)N1Cc1c(F)cccc1Cl |  | -0.523% (inactive)

SMILES | AC40 [1] | growth rescue activity [2]
O=C(Nc1ccccc1C(=O)OCC(=O)c1c[nH]c2ccccc12)c1ccco1 |  | 5.29% (inactive)
O=c1[nH][nH]c(-c2ccccc2O)c1C(C[N+](=O)[O-])c1ccccc1 (stereo not given) |  | 0.55% (inactive)
CC1(C)CC(=O)C2=C(C1)Nc1cc3c(cc1C2c1ccc2c(c1)OCO2)OCO3 (stereo not given) |  | 11.9% (inactive)
COc1ccc(OCc2nnnn2-c2ccccc2)cc1 |  | -3.39% (inactive)
Cn1c(CO)cnc1SCC(=O)c1ccc(Cl)cc1 |  | 4.95% (inactive)
Clc1ccc(SCc2csc(N3CCOCC3)n2)cc1 | > 26 µM (inactive) | 
COC(=O)C(C)Sc1ncnc2c1nnn2-c1ccc(F)cc1 (stereo not given) |  | -1.99% (inactive)
CN(Cc1nnc(-c2ccc(F)cc2)o1)c1ccccc1 |  | 8.17% (inactive)
CCCc1nc(SCC(=O)Nc2cc(C)on2)c2ccccc2n1 |  | 4.07% (inactive)
CC(C)c1ccc(C2NC(=O)c3ccccc3O2)cc1 (stereo not given) | 12.1 µM | 
CC(C)C(=O)N1CCC(n2nccc2NC(=O)CCOc2ccccc2)CC1 |  | -1.45% (inactive)
CC1(C)CC(=O)C=C(NC2=CC3OC(c4ccccc4)OCC3OC2=O)C1 (stereo not given) | > 26 µM (inactive) | 
Fc1ccccc1-c1nc2nc3ccccc3nc2n1CC1CCCO1 (stereo not given) |  | 11.6% (inactive)
Cc1ccc(CN2CCN(CC(C)C)C(CCO)C2)s1 (stereo not given) |  | -1.18% (inactive)
Cc1ccc(O)c(NC(=O)c2onc(C)c2Cl)c1 |  | 6.44% (inactive)
O=c1c2ccccc2[nH]c(=S)n1CCC1=CCCCC1 |  | 21.3% (inactive)
O=C(CSCc1ccc(Br)cc1)N1CCCC1 |  | 0.808% (inactive)
O=[N+]([O-])c1cccc(-c2ncc3ccccn23)c1 | > 26 µM (inactive) | 
Cc1ccc2cccnc2c1NC(=S)NC(=O)c1ccccc1 |  | -4.6% (inactive)
C/C(=N\NC(=O)c1ccoc1C)c1cccc2ccccc12 |  | 8.58% (inactive)
CC1(C)CC(=O)C2=C(C1)OC(N)=C(C#N)C2C#Cc1ccccc1 (stereo not given) |  | 8.43% (inactive)
CC(=O)Nc1nnc(SCC(=O)c2ccc(F)cc2)s1 |  | -0.765% (inactive)
